For one experiment, the system named is A2058 cells. In words: Cell viability assay (Cell-Titer-Glo) in A2058 cells. To be noted: Homo sapiens, 48 hour treatment, test compounds 1 nM to 1 μM. It is filed as cell-based. Here is the method:
(§1) Cell viability assays were run using standard protocols known to those of skill in art. Cells were plated in 96 well plates at the density of 3,000-10,000 cells per well. Twenty four hours later, cells were treated with increasing concentration of test compounds (1 nM to 1 μM). After another 48 hour, cell survival was measured using Cell-Titer-Glo® reagent (Promega) following the protocol provided by the manufacture. The IC50 value was determined as the concentration of test compound that kills 50% of the cell population.
(§2) Cell viability data generated according to the protocol described above was generated for representative compounds in A2058 and U937 cells. The compounds shown in Table 1 were prepared by the methods described herein for structurally similar compounds. The reference compound was a synthetic diazonamide analog having the structure: […]

A further experiment has as its system U937 cells. In words: Cell viability assay (Cell-Titer-Glo) in U937 cells. The conditions noted are these: test compounds 1 nM to 1 μM. It is filed as cell-based. As for the experimental part: as §1, §2
Where [1] appears, read: Homo sapiens, U-937, 48 hour treatment.

One may read the IC50 as the concentration that inhibits the measured activity by half. On to `CC(C)[C@H](O)C(=O)N[C@H]1Cc2ccc3c(c2)[C@]2(C4=C(c5nc(CC(F)(F)F)co5)N=C(O4)[C@H](C(C)C)NC1=O)c1ccccc1NC2O3` (some centres unmarked) [Compound 100], for which the IC50 in the experiment with A2058 cells stood at 465 nM; in the experiment with U937 cells (setting [1]), 220 nM.

For `CC(C)[C@H](O)C(=O)N[C@H]1Cc2ccc3c(c2)C2(C4=C(c5nc6cnccc6o5)N=C(O4)[C@H](C(C)C)NC1=O)c1ccccc1N[C@H]2O3` (some centres unmarked) [Compound 95], the IC50 in the experiment on A2058 cells was 142 nM; with U937 cells (setting [1]), 65 nM.

In the case of `CC(O)c1coc(-c2nc3oc2C24c5ccccc5N[C@H]2Oc2ccc(cc24)C[C@H](NC(=O)[C@@H](O)C(C)C)C(=O)N[C@H]3C(C)C)n1` (some centres unmarked) [Compound 29], the IC50 with A2058 cells worked out at 119 nM; with U937 cells (setting [1]), 59 nM.

For `COC(=O)c1coc(-c2nc3oc2C24c5cc(Cl)ccc5N[C@H]2Oc2ccc(cc24)C[C@H](NC(=O)[C@@H](O)C(C)C)C(=O)N[C@H]3C(C)(C)C)n1` (some centres unmarked) [Compound 84], the IC50 with A2058 cells came to 19.5 nM; in the experiment with U937 cells (setting [1]), 10.1 nM.

Regarding `CC(C)[C@H](O)C(=O)N[C@H]1Cc2ccc3c(c2)C2(C4=C(c5nc(C(C)(C)O)co5)N=C(O4)[C@H](C(C)C)NC1=O)c1ccccc1N[C@H]2O3` (some centres unmarked) [Compound 31], the IC50 in the experiment on A2058 cells stood at 602 nM; in the experiment on U937 cells (setting [1]) it was 259 nM.

For `Cc1nnc(-c2coc(-c3nc4oc3[C@@]35c6ccccc6NC3Oc3ccc(cc35)C[C@H](NC(=O)[C@@H](O)C(C)C)C(=O)N[C@H]4C(C)(C)C)n2)o1` (some centres unmarked) [Compound 48], the IC50 with A2058 cells was determined as 6.11 nM; with U937 cells (setting [1]) it was 6.34 nM.

As for `CC(C)[C@H](O)C(=O)NC1Cc2ccc3c(c2)C2(C4=C(c5nc(COC(=O)C(C)(C)C)co5)N=C(O4)[C@H](C(C)C)NC1=O)c1ccccc1N[C@H]2O3` (some centres unmarked) [Compound 21], the IC50 stood at 40 nM in the experiment with A2058 cells and 20 nM in the experiment on U937 cells (setting [1]).

Consider `COC(=O)c1coc(-c2nc3oc2C24c5cc(F)ccc5N[C@H]2Oc2ccc(cc24)C[C@H](NC(=O)[C@@H](O)C(C)C)C(=O)N[C@H]3C(C)C)n1` (some centres unmarked) [Compound 80], for which the values for the IC50 in the experiment on A2058 cells and with U937 cells (setting [1]) were 13.6 nM and 4.07 nM, respectively.

`Cc1nc(-c2coc(-c3nc4oc3[C@@]35c6ccccc6NC3Oc3ccc(cc35)C[C@H](NC(=O)[C@@H](O)C(C)C)C(=O)N[C@H]4C(C)C)n2)no1` (some centres unmarked) [Compound 46]: the IC50 in the experiment with A2058 cells is 49 nM; in the experiment with U937 cells (setting [1]) it was 76.9 nM.

With `CC(C)[C@H](O)C(=O)N[C@H]1Cc2ccc3c(c2)[C@]2(C4=C(c5nc(CO)co5)N=C(O4)[C@H](C(C)C)NC1=O)c1cc(F)ccc1N[C@@H]2O3` [Compound 81], the figures for the IC50 with A2058 cells and with U937 cells (setting [1]) were 55.1 nM and 32.8 nM, respectively.

Turning to `CC(C)[C@H](O)C(=O)NC1Cc2ccc3c(c2)[C@]2(C4=C(c5nc(-c6nnn[nH]6)co5)N=C(O4)[C@H](C(C)C)NC1=O)c1ccccc1NC2O3` (some centres unmarked) [Compound 44], the IC50 in the experiment with A2058 cells and in the experiment on U937 cells (setting [1]) was more than 1000 nM throughout.

For the compound `COC(=O)c1coc(-c2nc3oc2[C@@]24c5ccccc5NC2Oc2ccc(cc24)C[C@H](NC(=O)[C@@H](O)C(C)C)C(=O)N(C)[C@H]3C(C)C)n1` (some centres unmarked) [Compound 92], the IC50 in the experiment with A2058 cells stood at 113 nM; with U937 cells (setting [1]), 69.9 nM.

Take `COC(=O)c1coc(-c2nc3oc2[C@]24c5ccccc5NC2Oc2ccc(cc24)C[C@H](NC(=O)[C@@H](O)C(C)C)C(=O)N[C@H]3C(C)(C)C)n1` (some centres unmarked) [Compound 59]: the IC50 with U937 cells (48 hour treatment) is 69 nM.

Consider `COC(=O)c1coc(-c2nc3oc2[C@@]24c5ccccc5NC2Oc2ccc(cc24)C[C@H](NC(=O)[C@@H](O)C(C)C)C2=NC3CO2)n1` (some centres unmarked) [Compound 54], for which the IC50 in the experiment on A2058 cells and with U937 cells (setting [1]) was more than 1000 nM each time.

`CC(C)[C@H](O)C(=O)N[C@H]1Cc2ccc3c(c2)[C@]2(C4=C(c5nc(C#N)co5)N=C(O4)[C@H](C(C)C)NC1=O)c1cc(F)ccc1N[C@@H]2O3` [Compound 86]: the IC50 was 0.56 nM in the experiment with A2058 cells and 21.8 nM with U937 cells (setting [1]).

On to `CC(C)[C@H](O)C(=O)NC1Cc2ccc3c(c2)C2(C4=C(c5nc(CNS(C)(=O)=O)co5)N=C(O4)[C@H](C(C)C)NC1=O)c1ccccc1N[C@H]2O3` (some centres unmarked) [Compound 35], for which the IC50 is 151 nM with A2058 cells and 198 nM in the experiment with U937 cells (setting [1]).

With `COC(=O)c1coc(-c2nc3oc2C24c5ccccc5NC2Oc2ccc(cc24)C[C@H](NC(=O)[C@@H](O)C(C)C)C(=O)N[C@H]3Cc2ccccc2)n1` (some centres unmarked) [Compound 51], the IC50 in the experiment with A2058 cells and in the experiment on U937 cells (setting [1]) was more than 1000 nM in each case.

`COC(=O)Nc1coc(-c2nc3oc2C24c5ccccc5N[C@H]2Oc2ccc(cc24)CC(NC(=O)[C@@H](O)C(C)C)C(=O)N[C@H]3C(C)C)n1` (some centres unmarked) [Compound 37]: the IC50 in the experiment on A2058 cells is 235 nM; in the experiment with U937 cells (setting [1]) it was 178 nM.

`CCC[C@@H]1NC(=O)[C@@H](NC(=O)[C@@H](O)C(C)C)Cc2ccc3c(c2)C2(C4=C(c5nc(C(=O)OC)co5)N=C1O4)c1ccccc1NC2O3` (some centres unmarked) [Compound 52]: the IC50 in the experiment on A2058 cells turned out to be 257 nM; in the experiment on U937 cells (setting [1]), 71 nM.

With `COC(=O)c1coc(-c2nc3oc2[C@@]24c5ccccc5NC2Oc2ccc(cc24)C[C@H](NC(=O)[C@@H](O)C(C)C)C(=O)NC3)n1` (some centres unmarked) [Compound 53], the IC50 in the experiment on A2058 cells and in the experiment with U937 cells (setting [1]) was more than 1000 nM throughout.

For `CC(C)[C@H](O)C(=O)NC1Cc2ccc3c(c2)C2(C4=C(c5nc(C6OCCO6)co5)N=C(O4)[C@H](C(C)C)NC1=O)c1ccccc1N[C@H]2O3` (some centres unmarked) [Compound 42], the IC50 was found to be 49 nM in the experiment on A2058 cells and 43 nM in the experiment with U937 cells (setting [1]).

`COC(=O)c1coc(-c2nc3oc2C24c5ccc(F)cc5N[C@H]2Oc2ccc(cc24)C[C@H](NC(=O)[C@@H](O)C(C)C)C(=O)N[C@H]3C(C)C)n1` (some centres unmarked) [Compound 82]: the IC50 was found to be 40.9 nM in the experiment on A2058 cells and 3.4 nM with U937 cells (setting [1]).

For `COC(=O)c1coc(-c2nc3oc2C24c5ccccc5N[C@H]2Oc2ccc(cc24)CC[C@H](NC(=O)[C@@H](O)C(C)C)C(=O)N[C@H]3C(C)(C)C)n1` (some centres unmarked) [Compound 73], the IC50 with A2058 cells and in the experiment with U937 cells (setting [1]) was less than 0.1 nM each time.

For `Cc1oc(-c2nc3oc2[C@@]24c5ccccc5NC2Oc2ccc(cc24)CC(NC(=O)[C@@H](O)C(C)C)C(=O)N[C@H]3C(C)C)nc1C#N` (some centres unmarked) [Compound 40], the IC50 came to 182 nM in the experiment on A2058 cells and 210 nM in the experiment with U937 cells (setting [1]).

As to `COC(=O)c1coc(-c2nc3oc2C24c5cc(ccc5O[C@@H]2Nc2c(-c5ccccc5)cccc24)C[C@H](NC(=O)[C@@H](O)C(C)C)C(=O)N[C@H]3C(C)C)n1` (some centres unmarked) [Compound 79], the IC50 worked out at 270 nM in the experiment on A2058 cells and 210 nM with U937 cells (setting [1]).

Turning to `COC(=O)c1coc(-c2nc3oc2CCCCC[C@H](NC(=O)[C@@H](O)C(C)C)C(=O)N[C@H]3C(C)C)n1` [Compound 105], the IC50 with A2058 cells and in the experiment on U937 cells (setting [1]) was more than 300 nM each time.

`CCC(C)(O)C(=O)N[C@H]1Cc2ccc3c(c2)C2(C4=C(c5nc(C#N)co5)N=C(O4)[C@H](C(C)(C)C)NC1=O)c1ccccc1N[C@H]2O3` (some centres unmarked) [Compound 68]: the IC50 in the experiment with A2058 cells was found to be 21.1 nM; in the experiment on U937 cells (setting [1]), 59.6 nM.

`CCC(O)(CC)C(=O)N[C@H]1Cc2ccc3c(c2)C2(C4=C(c5nc(C(=O)OC)co5)N=C(O4)[C@H](C(C)(C)C)NC1=O)c1ccccc1N[C@H]2O3` (some centres unmarked) [Compound 63]: the IC50 came to 15.5 nM in the experiment on A2058 cells and 1.97 nM with U937 cells (setting [1]).

As for `COC(=O)c1coc(-c2nc3oc2[C@@]24c5ccccc5NC2Oc2c(F)cc(cc24)CC(NC(=O)[C@@H](O)C(C)C)C(=O)N[C@H]3C(C)C)n1` (some centres unmarked) [Compound 71], the IC50 was found to be 67 nM with A2058 cells and 9.2 nM in the experiment with U937 cells (setting [1]).

`COC(=O)c1coc(-c2nc3oc2[C@@]24c5ccccc5NC2Oc2ccc(cc24)C[C@H](NC(=O)[C@@H](O)C(C)C)C(=O)N[C@H]3C2CCCCC2)n1` (some centres unmarked) [Compound 58]: the IC50 was more than 1000 nM with A2058 cells and 445 nM in the experiment on U937 cells (setting [1]).
